Laboratory results taken from patent US20160175214A1, “ANHYDROUS COSMETIC COMPOSITION FOR TOPICAL APPLICATION” (The Procter & Gamble Company, priority 2014, published 2016).

Test: Solubility in hydrophobic anhydrous, glycol free, antiperspirant free stick formulations
Type: physicochemical
Text: Additional considerations regarding exemplary Vitamin B5 derivatives may apply. For example, in order to deliver Vitamin B5 (or a derivative thereof) from an anhydrous, hydrophobic, glycol free and antiperspirant free cosmetic stick, a corresponding matrix soluble form or derivative of Vitamin B5 must be used to achieve the desired benefits of hair softening, shave bump reduction and wound healing from shave cut damage. For example, if an incompatible or insoluble form of Vitamin B5 is used, such as panthenol, this will not form a homogenous one phase solution when the ingredients are blended and heated together from the melt.
As such, the Vitamin B5 derivative utilized should be soluble in the anhydrous, hydrophobic, glycol free and antiperspirant free matrix.

Compound: CCOCC(C)(C)C(O)C(=O)NCCCO (stereo not shown) [Panthenyl Ethyl Ether]
- Solublility in hydrophobic Anhydrous, glycol free, antiperspirant free Stick formulations: Soluble
